Assays:
[1] = molecular target: Glutamate NMDA receptor; Grin1/Grin2b (Rattus norvegicus, UniProt P35439+Q00960); assay: Antagonist activity against rat 1A/2B subtype of N-methyl-D-aspartate (NMDA) receptor in xenopus oocytes.; type: functional, cell-based, Oocyte
[2] = Antagonist activity against rat 1A/2A subtype of N-methyl-D-aspartate (NMDA) receptor was determined by electrical assay in xenopus oocytes.; type: functional, cell-based; details: Oocyte
[3] = Antagonist activity against rat 1A/2C subtype of N-methyl-D-aspartate (NMDA) receptor was determined by electrical assay in xenopus oocytes.; type: functional, cell-based; details: Oocyte

Glutamate NMDA receptor; Grin1/Grin2b, sequence (Q00960 whole entry, other chains not shown): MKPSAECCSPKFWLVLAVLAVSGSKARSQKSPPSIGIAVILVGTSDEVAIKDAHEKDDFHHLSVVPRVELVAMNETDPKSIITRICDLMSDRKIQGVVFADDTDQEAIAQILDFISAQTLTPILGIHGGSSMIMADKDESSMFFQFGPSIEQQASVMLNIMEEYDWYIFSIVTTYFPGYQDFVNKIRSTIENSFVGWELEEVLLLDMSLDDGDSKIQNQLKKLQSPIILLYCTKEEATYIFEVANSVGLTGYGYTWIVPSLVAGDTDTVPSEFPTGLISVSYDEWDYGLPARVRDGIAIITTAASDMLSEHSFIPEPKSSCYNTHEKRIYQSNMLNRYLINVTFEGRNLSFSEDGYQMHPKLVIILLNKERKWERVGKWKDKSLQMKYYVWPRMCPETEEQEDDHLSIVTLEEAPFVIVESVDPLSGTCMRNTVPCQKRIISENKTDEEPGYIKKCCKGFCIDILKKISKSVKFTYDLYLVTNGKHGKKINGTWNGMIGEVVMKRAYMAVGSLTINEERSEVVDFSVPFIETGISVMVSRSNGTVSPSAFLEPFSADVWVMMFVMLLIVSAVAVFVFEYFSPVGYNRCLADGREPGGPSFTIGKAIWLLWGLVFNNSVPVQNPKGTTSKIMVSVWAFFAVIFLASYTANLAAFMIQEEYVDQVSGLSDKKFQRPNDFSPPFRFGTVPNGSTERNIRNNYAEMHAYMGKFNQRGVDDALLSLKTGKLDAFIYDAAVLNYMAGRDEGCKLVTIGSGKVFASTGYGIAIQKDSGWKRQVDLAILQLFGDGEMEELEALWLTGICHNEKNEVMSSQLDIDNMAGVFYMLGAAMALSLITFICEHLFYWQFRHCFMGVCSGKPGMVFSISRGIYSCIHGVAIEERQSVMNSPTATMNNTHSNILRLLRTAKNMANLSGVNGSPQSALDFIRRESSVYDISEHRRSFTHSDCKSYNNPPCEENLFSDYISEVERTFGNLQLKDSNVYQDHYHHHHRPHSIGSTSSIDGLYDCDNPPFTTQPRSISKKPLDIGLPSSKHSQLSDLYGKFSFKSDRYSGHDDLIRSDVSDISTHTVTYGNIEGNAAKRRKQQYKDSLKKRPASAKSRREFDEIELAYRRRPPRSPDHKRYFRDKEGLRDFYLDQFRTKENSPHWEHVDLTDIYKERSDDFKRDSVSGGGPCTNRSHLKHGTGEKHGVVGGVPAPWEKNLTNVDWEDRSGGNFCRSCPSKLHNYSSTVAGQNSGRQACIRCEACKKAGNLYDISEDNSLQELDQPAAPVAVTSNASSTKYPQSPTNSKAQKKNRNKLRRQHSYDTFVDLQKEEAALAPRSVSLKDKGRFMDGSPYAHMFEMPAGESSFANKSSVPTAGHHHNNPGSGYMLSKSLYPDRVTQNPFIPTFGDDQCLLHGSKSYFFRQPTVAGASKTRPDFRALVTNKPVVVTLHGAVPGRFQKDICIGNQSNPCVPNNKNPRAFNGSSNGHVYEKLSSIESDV

Compound `Oc1ccc(CCCCN2CCc3c([nH]c4ccccc34)C2)cc1` has an IC50 [1] of 0.56 µM, an IC50 [2] of 58 µM and an IC50 [3] of 150 µM.

`c1ccc(CCCCN2CCc3c([nH]c4ccccc34)C2)cc1` showed an IC50 [1] of 3.3 µM, an IC50 [2] of 68 µM and an IC50 [3] of 65 µM.

With `Oc1ccc(CCN2CCc3c([nH]c4ccccc34)C2)cc1` the IC50 [1] was 3.8 µM, the IC50 [2] was 74 µM and the IC50 [3] was 140 µM.

`COc1ccc2[nH]c3c(c2c1)CCN(CCCCc1ccccc1)C3` gave an IC50 [1] of 14 µM, an IC50 [2] of 110 µM and an IC50 [3] of 132 µM.

With `Oc1ccc(CCCNCCCCc2ccccc2)cc1` the IC50 [1] was 0.02 µM.

Compound `Oc1ccc2[nH]c3c(c2c1)CCN(CCCCc1ccccc1)C3` has an IC50 [1] of 0.14 µM, an IC50 [2] of 97 µM and an IC50 [3] of 180 µM.

Compound `Oc1ccc2c3c([nH]c2c1)CN(CCCCc1ccccc1)CC3` has an IC50 [1] of 0.05 µM, an IC50 [2] of 57 µM and an IC50 [3] of 67 µM.

For `Oc1ccc(CCCN2CCc3c([nH]c4ccccc34)C2)cc1`, the IC50 [1] was 0.087 µM, the IC50 [2] was 42 µM and the IC50 [3] was 170 µM.

Source: ChEMBL document CHEMBL1131743, “Structure-activity relationship for a series of 2-substituted 1,2,3,4-tetrahydro-9H-pyrido[3,4-b]indoles: potent subtype-selective inhibitors of N-methyl-D-aspartate (NMDA) receptors” (Bioorg Med Chem Lett, 1999)
